ChEMBL document CHEMBL1150665, “Screening of ubiquitous plant constituents for COX-2 inhibition with a scintillation proximity based assay” (J Nat Prod, 2002)
Activity calls are given as the source filed them. No cut-off for these calls is given here.

B1: Prostaglandin G/H synthase 2 (Homo sapiens), P35354 (protein)
chain: MLARALLLCAVLALSHTANPCCSHPCQNRGVCMSVGFDQYKCDCTRTGFYGENCSTPEFLTRIKLFLKPTPNTVHYILTHFKGFWNVVNNIPFLRNAIMSYVLTSRSHLIDSPPTYNADYGYKSWEAFSNLSYYTRALPPVPDDCPTPLGVKGKKQLPDSNEIVEKLLLRRKFIPDPQGSNMMFAFFAQHFTHQFFKTDHKRGPAFTNGLGHGVDLNHIYGETLARQRKLRLFKDGKMKYQIIDGEMYPPTVKDTQAEMIYPPQVPEHLRFAVGQEVFGLVPGLMMYATIWLREHNRVCDVLKQEHPEWGDEQLFQTSRLILIGETIKIVIEDYVQHLSGYHFKLKFDPELLFNKQFQYQNRIAAEFNTLYHWHPLLPDTFQIHDQKYNYQQFIYNNSILLEHGITQFVESFTRQIAGRVAGGRNVPPAVQKVSQASIDQSRQMKYQSFNEYRKRFMLKPYESFEELTGEKEMSAELEALYGDIDAVELYPALLVEKPRPDAIFGETMVEVGAPFSLKGLMGNVICSPAYWKPSTFGGEVGFQIINTASIQSLICNNVKGCPFTSFSVPDPELIKTVTINASSSRSGLDDINPTVLLKERSTEL

biological target: T1, Prostaglandin G/H synthase 2 (Homo sapiens) (UniProt P35354); experiment: Inhibition of COX2 at 10 uM by scintillation proximity assay; conditions: not given
T1 sequence (whole entry): B1 chain

In the case of `O=c1c(O)c(-c2cc(O)c(O)c(O)c2)oc2cc(O)cc(O)c12`, the Activity is reported as “inactive”.
With `O=C(O)/C=C/c1ccc(O)c(O)c1` the Activity was “inactive”.
For `Oc1cccc(O)c1O`, the Activity was “inactive”.
`C=CCc1ccc(O)c(OC)c1` was tested, and the Activity was “inactive”.
With `O=C/C=C/c1ccccc1` the Activity was “inactive”.

biological target: T1, Prostaglandin G/H synthase 2 (Homo sapiens); conditions: at 100 µM
Description: Inhibition of COX2 at 100 uM by scintillation proximity assay

`CN1[C@@H]2CC[C@H]1C[C@@H](OC(=O)C(CO)c1ccccc1)C2` (mixture of isomers) and `CN1[C@@H]2C[C@@H](OC(=O)[C@H](CO)c3ccccc3)C[C@H]1[C@@H]1O[C@H]12` cannot be ordered by inhibition: < 30% for the first, < 30% for the second.

`Cn1c(=O)c2[nH]cnc2n(C)c1=O` and `Cn1c(=O)c2c(ncn2C)n(C)c1=O` cannot be ordered by inhibition: < 30% for the first, < 30% for the second.

`O=c1ccc2cc(O[C@@H]3O[C@H](CO)[C@@H](O)[C@H](O)[C@H]3O)c(O)cc2o1` and `OC[C@H]1O[C@@H](Oc2ccc(O)cc2)[C@H](O)[C@@H](O)[C@@H]1O` cannot be ordered by inhibition: < 30% for the first, < 30% for the second.

`O=C(O)C1CCCCN1` (stereo not drawn) and `C[N+]1(C)CCC[C@H]1C(=O)[O-]` cannot be ordered by inhibition: < 30% for the first, < 30% for the second.

Compared with `O=C(O)/C=C/c1ccc(O)cc1`, `O=C(O)/C=C/c1ccc(O)c(O)c1` is higher in inhibition: < 30% for the first, 32% for the second.

`CC(C)=CCC[C@@H](C)CC=O` and `CC(C)=CCCC(C)CCO` (racemic) cannot be ordered by inhibition: < 30% for the first, < 30% for the second.

`COc1cc2ccc(=O)oc2cc1O` and `O=c1ccc2ccc(O)cc2o1` cannot be ordered by inhibition: < 30% for the first, < 30% for the second.

Going from `O=c1c(O)c(-c2cc(O)c(O)c(O)c2)oc2cc(O)cc(O)c12` to `O=c1cc(-c2ccc(O)c(O)c2)oc2cc(O)cc(O)c12` [LUTEOLIN], the inhibition falls from 62% to < 30%.

`C[C@@H]1O[C@@H](O[C@H]2C[C@@H](O)[C@]3(CO)[C@H]4[C@H](O)C[C@]5(C)[C@@H](C6=CC(=O)OC6)CC[C@]5(O)[C@@H]4CC[C@]3(O)C2)[C@H](O)[C@H](O)[C@H]1O` and `C[C@@H]1O[C@@H](OC[C@H]2O[C@@H](Oc3c(-c4ccc(O)c(O)c4)oc4cc(O)cc(O)c4c3=O)[C@H](O)[C@@H](O)[C@@H]2O)[C@H](O)[C@H](O)[C@H]1O` cannot be ordered by inhibition: < 30% for the first, < 30% for the second.

`CC[C@H]1CN2CCc3cc(OC)c(OC)cc3[C@@H]2C[C@@H]1C[C@H]1NCCc2cc(OC)c(OC)cc21` and `COc1cc([C@@H]2c3cc4c(cc3[C@H](O)[C@H]3COC(=O)[C@H]23)OCO4)cc(OC)c1OC` cannot be ordered by inhibition: < 30% for the first, < 30% for the second.

`C=C(C)[C@@H]1CC[C@]2(CO)CC[C@]3(C)[C@H](CC[C@@H]4[C@@]5(C)CC[C@H](O)C(C)(C)[C@@H]5CC[C@]43C)[C@@H]12` and `CC(C)C1=CC2=CC[C@@H]3[C@](C)(CCC[C@@]3(C)C(=O)O)[C@H]2CC1` cannot be ordered by inhibition: < 30% for the first, < 30% for the second.

`O=C(O)c1cccnc1` and `C[n+]1cccc(C(=O)[O-])c1` cannot be ordered by inhibition: < 30% for the first, < 30% for the second.

`O=C(O)C1=C[C@@H](O)[C@@H](O)[C@H](O)C1` and `O=C(O)[C@]1(O)C[C@H](O)[C@@H](O)[C@@H](O)C1` cannot be ordered by inhibition: < 30% for the first, < 30% for the second.

`O=c1cc(-c2ccccc2)oc2cc(O)cc(O)c12` and `O=C1C[C@@H](c2ccc(O)cc2)Oc2cc(O)cc(O)c21` cannot be ordered by inhibition: < 30% for the first, < 30% for the second.

`O=C(O)c1cc(O)c2c(c1)[C@@H]([C@H]1c3cc(C(=O)O)cc(O)c3C(=O)c3c(O[C@@H]4O[C@H](CO)[C@@H](O)[C@H](O)[C@H]4O)cccc31)c1cccc(O[C@@H]3O[C@H](CO)[C@@H](O)[C@H](O)[C@H]3O)c1C2=O` and `O=C(/C=C/c1ccc(O)c(O)c1)O[C@@H]1C[C@](O)(C(=O)O)C[C@@H](O)[C@H]1O` cannot be ordered by inhibition: < 30% for the first, < 30% for the second.

`CC12CCC(CC1)C(C)(C)O2` and `CC12CCC(CC1=O)C2(C)C` (stereo not drawn) cannot be ordered by inhibition: < 30% for the first, < 30% for the second.

`O=C(O)CCCCC1CCSS1` (stereo not drawn) and `CC(C)=CCC[C@](C)(O)[C@H]1CC=C(C)CC1` cannot be ordered by inhibition: < 30% for the first, < 30% for the second.

First: O=C(O)c1cc(O)c(O)c(O)c1
Second: Oc1cccc(O)c1O
The inhibition of the first is lower: < 30% for the first, 57% for the second.

`Cc1ccc(C(C)C)c(O)c1` and `COc1ccc(C(=O)O)cc1O` cannot be ordered by inhibition: < 30% for the first, < 30% for the second.

`CC(C)[C@@H]1CC[C@@H](C)C[C@H]1O` and `C=C(C)[C@H]1CC=C(C)CC1` cannot be ordered by inhibition: < 30% for the first, < 30% for the second.

`Oc1ccc(O)cc1` and `O=c1ccc2ccccc2o1` cannot be ordered by inhibition: < 30% for the first, < 30% for the second.

In the case of `O=C/C=C/c1ccccc1`, the inhibition is reported as 45%.

biological target: T2, Prostaglandin G/H synthase 2 (Homo sapiens, UniProt P35354); conditions: not given
T2 sequence (P35354 whole entry): B1 chain

Going from `c1ccc(-c2ccc(-c3ccccc3)cc2)cc1` [TANNIN PYROGALLOL] to `C[C@H]1[C@H](C)CC[C@]2(C(=O)O)CC[C@]3(C)C(=CC[C@@H]4[C@@]5(C)CC[C@H](O)C(C)(C)[C@@H]5CC[C@]43C)[C@H]12` [URSOLIC ACID], the IC50 falls from 144 µM to 86 µM (1.7-fold). The second is the more potent here.

biological target: T2, Prostaglandin G/H synthase 2; experiment: Inhibition of COX2 in LPS-stimulated bone marrow derived mast cells; conditions: not given

With `O=c1cc(-c2ccc(O)c(O)c2)oc2cc(O)cc(O)c12` [LUTEOLIN] the IC50 was 8.73 µM.

biological target: T2, Prostaglandin G/H synthase 2; experiment: Inhibition of COX2; conditions: not given

With `O=c1cc(-c2ccc(O)c(O)c2)oc2cc(O)cc(O)c12` [LUTEOLIN] the IC50 was < 349 µM.

substrate: CCCCC/C=C\C/C=C\C/C=C\C/C=C\CCCC(=O)O; experiment: Activity of COX2; conditions: not given

B1 showed a Km of 1 µM.
